# From US10906904B2, “ADO-resistant cysteamine analogs and uses thereof” (HORIZON ORPHAN LLC, priority 2015, dated 2021)
# Read-outs that look alike come from different tables or passages of the source.
# Columns and labels:
# Cystine reactivity assay = test: Cystine reactivity assay; set-up: Cystine Reactivity: unit not given here; conditions: for Cystine Reactivity Assay (30° C.) (%) Mean Value: percentage of 3 mM cysteamine
# Protocol: Cystine reactivity was assessed by incubating 3 mM test compound with 100 nM BODIPY® FL L-Cystine (Life Tech.) at 30° C., pH 7.4 in phosphate buffer. […] Compound cystine reactivity was expressed as a percentage of that of 3 mM cysteamine.
# Under resting conditions, the inherent fluorescence of BODIPY® FL L-cystine was very low due to the spatial proximity of the two BODIPY molecules causing quenching. Under chemical reaction (disruption of the S—S bond), the spatial distance was increased, the quenching lost, and measured fluorescence increased. Time (minutes) vs. fluorescence (relative fluorescence units—RFU) was plotted and linear regression analysis was performed to generate a slope value corresponding to the reaction rate in RFU/min and an R2 value.
# [1] = test system: cystinotic human fibroblasts; test: Cystine depletion assay; format: cell-based; conditions: for Emax: Homo sapiens, Fibroblast, 1 h, relative to cystine depletion by cysteamine (100%) at a similar concentration
# Protocol: The ability of test compounds to deplete cystine from cystinotic human fibroblasts (Coriell) was determined by incubating compounds with cells for 60 min at 37° C., 95% (v/v) air/5% (v/v) CO2 in Minimal Essential Media Eagle. Treated cell samples were subsequently harvested, then homogenized to ensure plasma and lysosomal membrane disruption. Protein was removed by acid precipitation and cystine in the supernatant measured using LC-MS/MS and HILIC chromatography. Protein levels were determined and cystine levels reported as nM per mg/ml protein. Cystine levels after test compound treatment were expressed as a percentage of that of untreated control cells.
# Compounds were assayed at a concentration of 50 μM or 100 μM according to the general methods described above.
# Cystine depletion levels for the compounds are expressed in Table 4 as a percent relative to the cystine depletion achieved by cysteamine (c.f. cysteamine 100%) at a similar concentration.
# Cystine depletion levels for each of the compounds in Table 5 are expressed as a percent relative to the cystine depletion achieved by cysteamine (c.f. cysteamine 100%) at a similar concentration.
# human recombinant ADO = target: T1, human recombinant ADO (Homo sapiens, UniProt Q96SZ5); format: in vitro ADME
# T1 sequence (Q96SZ5 1-270): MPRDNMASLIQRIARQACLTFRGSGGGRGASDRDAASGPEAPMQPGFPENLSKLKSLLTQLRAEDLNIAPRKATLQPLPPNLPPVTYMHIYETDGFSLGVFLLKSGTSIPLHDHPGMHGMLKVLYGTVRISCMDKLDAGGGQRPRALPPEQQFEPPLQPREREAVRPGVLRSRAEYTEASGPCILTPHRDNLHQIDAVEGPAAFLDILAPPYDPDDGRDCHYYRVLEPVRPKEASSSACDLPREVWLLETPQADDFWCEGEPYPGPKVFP
# Protocol: The rate of ADO metabolism was determined by incubating 15 mM test compound with 60 μg/ml human recombinant ADO and 20 nM MitoXpress® O2-sensitive fluorescent probe (Luxcel) at 37° C. in assay buffer/salt in a sealed assay chamber. The initial rate of fluorescence (excitation λ380 nm and emission λ650 nm) increase was used to measure ADO-dependent oxygen depletion activity. The ability of ADO to metabolize compounds and concomitantly consume oxygen was expressed relative to that of 15 mM cysteamine.
# St-HdhQ^111/111 cells = test: Glutamate-induced neuronal excitotoxicity assay; format: cell-based; conditions: STHdhQ111, 6 mM L-glutamate 24 hours, % of effect of 100 μM cysteamine; for viability at 10 µM: read-out: HdhQ^111/111 cell % survival (mean ± STD) Test Conc. 10 μM; for viability at 100 µM: read-out: HdhQ^111/111 cell % survival (mean ± STD) Test Conc. 100 μM
# Protocol: The ability of test compounds to inhibit glutamate-induced excitotoxicity (neuroprotection) in St-HdhQ^111/111 cells was determined by incubating compounds with cells for 60 min at 33° C., 95% (v:v) air/5% (v:v) CO2 in Dulbecco's Modified Eagle Media. Following this, excitotoxicity was induced by the addition of 6 mM L-glutamate for 24 hours. Cell viability was assessed by measuring ATP levels using a luminescent-based CellTitre Glo assay (Promega). Compound neuroprotection (% cell survival) was expressed as a % of the effect recorded with 100 μM cysteamine (denoted as 100% cell survival).
# [2] = Table 5, read-out: Cystine Depletion (%) Mean Value
# [3] = Table 4, read-out: Cystine Depletion (%)
SMILES,Cystine Reactivity Assay (30° C.) (%) Mean Value (Cystine reactivity assay; Table 5),"Emax [1, 2]","ADO Metabolism Assay (%) Mean Value (human recombinant ADO; human, 15 mM)","Emax [1, 3]",Cystine Reactivity Assay (30° C.) (%) Mean Value (Cystine reactivity assay; Table 4),also measured
CC(C)(S)CN [Compound 3a],,,,,,"Cystine Reactivity (Cystine reactivity assay; Tables 1-3): 2284; cystine depletion levels (in words) ([1]; compared to cysteamine): slightly decreased; Cystine depletion ([1]; compound at 50 μM or 100 μM, Tables 1-3): 32%; metabolism by ADO compared to cysteamine (in words) (human recombinant ADO): significantly reduced metabolism by ADO compared to cysteamine; ADO metabolism (human recombinant ADO; human, 15 mM): 14%"
C[C@H](CS)C(=O)N1CCC[C@H]1C(=O)O [Compound 653],<50%,23%,,,,ADO Metabolism Assay (%) Mean Value (human recombinant ADO; human): <25%
CCN(CC)C(=S)SSC(=S)N(CC)CC [Compound 981],<50%,25%,<25%,,,
Cn1cc[nH]c1=S [Compound 1176],<50%,10%,<25%,,,
CC(CS)Cc1ccccc1 (centres unmarked) [Compound 2403],<50%,19%,<25%,,,
NC1(CS)CC1 [Compound 41448],,,25-75%,55%,,
SC1CCCNC1 (centres unmarked) [Compound 42208],,,<25%,102%,>90%,
NC1CC(S)C1 (centres unmarked) [Compound 42209],,,<25%,99%,59-90%,
SC[C@H]1CCCN1 [Compound 42211],,,<25%,79%,>90%,viability at 10 µM (St-HdhQ^111/111 cells): 2 ± 9%; viability at 100 µM (St-HdhQ^111/111 cells): 84 ± 19%
SCc1ccccn1 [Compound 42213],,,>75%,0%,>90%,
S[C@H]1CCCNC1 [Compound 42247],,,<25%,96%,>90%,viability at 10 µM (St-HdhQ^111/111 cells): 5 ± 8%; viability at 100 µM (St-HdhQ^111/111 cells): 84 ± 13%
S[C@@H]1CCCNC1 [Compound 42248],,,<25%,103%,>90%,viability at 10 µM (St-HdhQ^111/111 cells): 2 ± 7%; viability at 100 µM (St-HdhQ^111/111 cells): 81 ± 6%
SC1CCCCNC1 (centres unmarked) [Compound 42345],,,<25%,50%,>90%,
CC1(S)CCCNC1 (centres unmarked) [Compound 42388],>90%,63%,<25%,97%,>90%,viability at 10 µM (St-HdhQ^111/111 cells): 5 ± 6%; viability at 100 µM (St-HdhQ^111/111 cells): 91 ± 5%
SC12CCN(CC1)CC2 [Compound 42389],,,<25%,36%,50-90%,
N[C@H]1C[C@@H](S)C1 [Compound 42457],50-90%,77%,<25%,108%,59-90%,viability at 10 µM (St-HdhQ^111/111 cells): 6 ± 5%; viability at 100 µM (St-HdhQ^111/111 cells): 91 ± 6%

SMILES,Cystine Reactivity Assay (30° C.) (%) Mean Value (Cystine reactivity assay; Table 5),"Emax [1, 2]","ADO Metabolism Assay (%) Mean Value (human recombinant ADO; human, 15 mM)","Emax [1, 3]",Cystine Reactivity Assay (30° C.) (%) Mean Value (Cystine reactivity assay; Table 4),also measured
N[C@H]1CC[C@@H](S)CC1 [Compound 42491],,,<25%,,<50%,
SC1CC2(CNC2)C1 [Compound 42611],,,<25%,55%,>90%,
C[C@H]1CC[C@H](S)CN1 [Compound 42613],,,<25%,109%,>90%,
C[C@H]1CNCC[C@@H]1S [Compound 42614],,,<25%,117%,,viability at 10 µM (St-HdhQ^111/111 cells): 2 ± 6%; viability at 100 µM (St-HdhQ^111/111 cells): 59 ± 12%
C[C@@H]1CNCC[C@@H]1S [Compound 42615],,,<25%,106%,<50%,
NCCCNCCS [Compound 145564],>90%,36%,25-75%,,,
O=S(=O)([O-])CCS.[Na+] [Compound 145566],<50%,16%,,,,"ADO Metabolism Assay (%) Mean Value (human recombinant ADO; Table 5, relative to 15 mM cysteamine): <25%"
CC(C)(C)N1CCC(S)CC1 [Compound 145584],>90%,0%,<25%,,,
SCC1COCCN1 (centres unmarked) [Compound 145591],50-90%,61%,<25%,,,
C1CNC[C@H](SS[C@@H]2CCCNC2)C1 [Compound 145609],,121%,<25%,,,
NC1CCCC(S)C1 (centres unmarked) [Compound 145693],50-90%,81%,<25%,,,
CNC1CC(S)C1 (centres unmarked) [Compound 149608],<50%,55%,<25%,,,
CN[C@H]1C[C@H](S)C1 [Compound 149609],<50%,50%,<25%,,,
NC1CC(O)(CS)C1 (centres unmarked) [Compound 149610],<50%,15%,<25%,,,
OCC1(S)CCCNC1 (centres unmarked) [Compound 150730],>90%,14%,<25%,,,
